Data on six compounds can be found in the PolyMetriX glass transition set.

Test in data set [1]: not given
The source holds these as a separate data set.

Test in data set [2]: not given
The source holds these as a separate data set.

For the compound `*c1ccc2c(c1)C(CCCCCCCC)(CCCCCCCC)c1cc(-c3ccc(-c4c(-c5ccccc5)c(-c5ccccc5)c(-c5ccc(*)s5)c5nc(-c6ccccc6)c(-c6ccccc6)nc45)s3)ccc1-2` (repeat unit), the glass transition temperature was 192.00 °C.

Compound `*c1ccc2c(c1)C(CCCCCCCC)(CCCCCCCC)c1cc(-c3ccc(-c4ccc(*)s4)s3)ccc1-2` (repeat unit) came in with a glass transition temperature of 102.00 °C.

Turning to `*c1ccc2c(c1)C(CCCCCCCC)(CCCCCCCC)c1cc(-c3ccc(-c4ccc(-c5ccc(*)s5)c5nsnc45)s3)ccc1-2` (repeat unit), the glass transition temperature was 126.00 °C.

Compound `*CC(*)C(=O)NC(C)CC` (repeat unit) [Poly(N-sec-butylacrylamide)] yielded a glass transition temperature in data set [1] of 117 °C.

`*CC(*)(C)C(=O)OCCCCCCCC(C)C` (repeat unit) [Poly(isodecyl methacrylate)] showed a glass transition temperature in data set [1] of -41 °C.

`*C=C(*)c1ccccc1` (repeat unit) [Poly(phenylacetylene)] showed a glass transition temperature in data set [2] of 51 °C.
